What all share (type): cell-based
One test addresses T1, intracellular SHP-1 (Homo sapiens, UniProt P29350).
T1 construct: endogenous in cells; host or cells: Jurkat
The experiment in a line: tyrosine phosphorylation of SHP-1 substrates in Jurkat cells (SDS-PAGE/Western blotting, densitometry). The following applies: for level capable of inhibiting intracellular SHP-1: Jurkat T cells. The method, then:
(§1) Jurkat cells in culture medium (3×10^6 cells/ml, 1 ml/tube) were treated with agents for designated times at room temperature. After brief centrifuging in a microfuge (4,000 rpm, 2 min), the cell pellet was lysed on ice for 30 min in 1001 of cold lysis buffer (1% NP40, 50 mM Tris, pH 7.4, 150 mM NaCl, 20 mM NaF, 0.2 mM Na3VO4 and 1 mM Na3MO4) containing a cocktail of proteinase inhibitors (Sigma, 1 tablet/10 ml). The lysates were cleared by centrifuging (14,000 rpm, 10 min) in a microfuge at 4° C. to remove insoluble parts, mixed with equal volume of 2×SDS-PAGE sample buffer, boiled for 5 min and analyzed (˜3×10^5 cells/well) by SDS-PAGE/Western blotting. Relative intensities of phosphotyrosine bands were quantified through densitometry analysis.
as §1, with “100 μl” for “1001”, “blotting as described previously (23, 24).” for “blotting.”
as §1, with “100 μl” for “1001”, “blotting as described previously (17, 18).” for “blotting.”
In general terms: A western blot detects proteins with antibodies after separation by electrophoresis.

The test system of a further test is mouse splenocytes. The experiment in a line: induction of IFNγ+ cells in mouse splenocytes in vitro (ELISPOT). On the procedure: The splenocytes were cultured in RPMI 1640 medium supplemented with 10% FCS in the absence or presence of designated agents for 16 hrs in flat-bottom 96-well plates coated with a monoclonal antibody specific for mouse IFNγ (mouse IFNγ ELISPOT Kit, R & D System). The plates were then processed for in situ detection of IFNγ+ cells by ELISA following the manufacturer's procedure. Scanning and counting of IFNγ+ cells in the plates were accomplished using an automatic ELISPOT reader with Immunospot2 software (Cellular Technology Ltd). Mouse splenocytes were also untreated or treated with agents for 16 hrs in culture dishes and then stained with appropriate isotype control antibodies or FICT-labeled anti-CD3 monoclonal antibody (BD) plus PE-labeled monoclonal antibody (BD) for intracellular IFNγ following established procedures. The stained samples were washed 3 times, re-suspended in 200 μl of 1% para-formaldehyde solution and analyzed (20,000 cells/sample) using a BD FACS Caliburs cytometer and WinList software.
The splenocytes were cultured in RPMI 1640 medium supplemented with 10% FCS in the absence or presence of designated agents for 16 hrs in flat-bottom 96-well plates coated with a monoclonal antibody specific for mouse IFNγ (mouse IFNγ ELISPOT Kit, R & D System). The plates were then processed for in situ detection of IFNγ+ cells by ELISA following the manufacturer's procedure. Scanning and counting of IFNγ+ cells in the plates were accomplished using an automatic ELISPOT reader with Immunospot2 software (Cellular Technology Ltd).

In another test the target is T2, SHP-2 (Homo sapiens, UniProt Q06124).
T2 sequence (Q06124 1-593): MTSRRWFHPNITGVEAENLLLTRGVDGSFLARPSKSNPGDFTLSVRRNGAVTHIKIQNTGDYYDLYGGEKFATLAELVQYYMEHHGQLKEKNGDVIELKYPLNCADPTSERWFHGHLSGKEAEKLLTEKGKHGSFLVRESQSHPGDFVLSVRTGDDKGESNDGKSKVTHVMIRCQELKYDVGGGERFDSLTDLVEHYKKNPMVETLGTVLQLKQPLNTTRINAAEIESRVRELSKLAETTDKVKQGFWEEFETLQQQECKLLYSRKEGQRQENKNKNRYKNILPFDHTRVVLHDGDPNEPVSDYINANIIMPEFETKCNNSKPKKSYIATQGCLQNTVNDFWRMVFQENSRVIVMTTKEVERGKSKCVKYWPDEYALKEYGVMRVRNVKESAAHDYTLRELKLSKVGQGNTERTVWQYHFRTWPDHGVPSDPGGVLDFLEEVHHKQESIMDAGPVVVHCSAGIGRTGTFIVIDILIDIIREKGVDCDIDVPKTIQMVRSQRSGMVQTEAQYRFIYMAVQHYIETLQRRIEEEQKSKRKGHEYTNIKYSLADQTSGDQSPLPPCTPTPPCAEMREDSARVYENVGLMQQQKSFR
The experiment in a line: pERK1/2 levels in L5-treated Jurkat cells. Also on record: endogenous in cells; host or cells: Jurkat. The following applies: not at lower doses (0.1 to 0.001 μg/ml). On the procedure:
as §1
To assess the effects of L5 on other phosphatases, pERK1/2 and pLck-pY505 in L5-treated Jurkat cells were quantified. SHP-2 is known to be a positive mediator of pERK1/2 whereas pLck-pY505 is dephosphorylated by PTPase CD45.

Some results are limits rather than exact numbers.

Data on one compound can be found in patent publication US7939554B2, “Protein phosphatase inhibitors” (The Cleveland Clinic Foundation, priority 2006, dated 2011).

T1 sequence (P29350 whole entry): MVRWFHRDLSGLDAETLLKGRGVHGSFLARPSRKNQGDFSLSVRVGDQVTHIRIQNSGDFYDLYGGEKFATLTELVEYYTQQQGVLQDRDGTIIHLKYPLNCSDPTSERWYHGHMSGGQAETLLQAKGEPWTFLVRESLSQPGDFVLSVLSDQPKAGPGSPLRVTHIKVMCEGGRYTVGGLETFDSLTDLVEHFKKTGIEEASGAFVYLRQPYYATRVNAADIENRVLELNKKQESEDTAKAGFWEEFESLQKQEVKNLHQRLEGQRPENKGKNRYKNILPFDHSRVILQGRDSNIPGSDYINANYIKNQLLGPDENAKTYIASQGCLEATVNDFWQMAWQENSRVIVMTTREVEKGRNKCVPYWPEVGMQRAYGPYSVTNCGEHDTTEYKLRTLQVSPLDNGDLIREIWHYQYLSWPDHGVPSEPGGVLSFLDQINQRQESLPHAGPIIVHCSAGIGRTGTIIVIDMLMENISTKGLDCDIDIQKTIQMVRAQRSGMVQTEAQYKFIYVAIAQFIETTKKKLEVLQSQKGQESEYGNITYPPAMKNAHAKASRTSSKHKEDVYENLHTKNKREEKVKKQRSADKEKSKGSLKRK

Turning to `O=C1C=CC(=O)C(c2cc(Cl)ccc2Cl)=C1` [L5], the pLck-pY394 induction on intracellular SHP-1 (0.01 μg/ml, 10 min) is reported as 2-3 fold; on intracellular SHP-1 (0.1, 1 or 3 μg/ml, 10 min) it was greater than 4 folds. Moreover, the pSlp76 level entry on intracellular SHP-1 (0.01, 0.1, 1 or 3 μg/ml) is given as “obviously increased”. The pZap70 level entry at intracellular SHP-1 (0.01, 0.1, 1 or 3 μg/ml) was “obviously increased”. At intracellular SHP-1 (10 min treatment), the “dose effective in inducing pLck-pY394 (lowest / only effective dose)” value came out at 0.01 μg/ml. In addition, the entries for the “level capable of inhibiting intracellular SHP-1” value on intracellular SHP-1 and on intracellular SHP-1 (molar equivalent) were 10 ng/mL and roughly 40 nM, respectively. Also, the pLAT level result on intracellular SHP-1 (L5-treated Jurkat cells) is given as “induced”. Moreover, the “potency relative to SSG” value is “approximately 1,000 fold” at intracellular SHP-1 (by weight) and roughly 350 fold at intracellular SHP-1 (in equal molar ratios). At intracellular SHP-1 (lead compounds, 10 min, densitometry, FIG. 2), the “pLck-pY394 induction versus untreated control” value is reported as roughly 10 fold. In addition, the “induction of IFNγ+ cells” value is “inactive” with mouse splenocytes (0.001 μg/ml, 16 hrs) and 3-4 fold in the test with mouse splenocytes (low doses (0.01 to 1 μg/ml), same mouse, FIG. 16). Also, the “increase of IFNγ+ cells in splenocytes” value was roughly 14 fold in the test on mouse splenocytes (1 μg/ml, 16 hrs); roughly 26 fold in the test with mouse splenocytes (3 μg/ml, 16 hrs); roughly 17 fold in the test on mouse splenocytes (10 μg/ml, 16 hrs); roughly 10 fold with mouse splenocytes (30 μg/ml, 16 hrs). Moreover, the “minimal effective dose for IFNγ+ cell induction” value in the test with mouse splenocytes (FIG. 11) was 10 ng/mL. In addition, in the test with mouse splenocytes (maximal induction at a comparable dose, mouse splenocytes), the “effectiveness relative to SSG in inducing IFNγ+ cells” value was roughly 58 fold. For the same compound, the “dose reducing pERK1/2 levels” value at SHP-2 was 1 μg/ml.
